Results: US20230203004A1, “RSV INHIBITING 3-SUBSTITUTED QUINOLINE AND CINNOLINE DERIVATIVES” (Janssen Sciences Ireland Unlimited Company, priority 2020, published 2023)
Where two headings read alike, the source gives them in different places.

Experiments:
[1] = Cytotoxicity in HeLa cells (ATP content, ATPlite kit); type: cell-based; conditions: human
Protocol: (§1) Black 384-well clear-bottom microtiter plates (Corning, Amsterdam, The Netherlands) were filled via acoustic drop ejection using the echo liquid handler (Labcyte, Sunnyvale, California). 200 nL of compound stock solutions (100% DMSO) were transferred to the assay plates. 9 serial 4-fold dilutions of compound were made, creating per quadrant the same compound concentration. The assay was initiated by adding 10 µL of culture medium to each well (RPMI medium without phenol red, 10% FBS-heat inactivated, 0.04% gentamycin (50 mg/mL). All addition steps are done by using a multidrop dispenser (Thermo Scientific, Erembodegem, Belgium). Next, rgRSV224 virus (MOI = 1) diluted in culture medium was added to the plates. rgRSV224 virus is an engineered virus that includes an additional GFP gene (Hallak LK, Spillmann D, Collins PL, Peeples ME. Glycosaminoglycan sulfation requirements for respiratory syncytial virus infection; Journal of virology (2000), 74(22), 10508-13) and was in-licensed from the NIH (Bethesda, MD, USA). Finally, 20 µL of a HeLa cell suspension (3,000 cells/well) were plated. Medium, virus- and mock-infected controls were included in each test. The wells contain […] DMSO per volume. Cells were incubated at 37° C. in a 5% CO2 atmosphere. Three days post-virus exposure, viral replication was quantified by measuring GFP expression in the cells by an in house developed MSM laser microscope (Tibotec, Beerse, Belgium). The EC50 was defined as the 50% inhibitory concentration for GFP expression. In parallel, compounds were incubated for three days in a set of white 384-well microtiter plates (Corning) and the cytotoxicity of compounds in HeLa cells was determined by measuring the ATP content of the cells using the ATPlite kit (Perkin Elmer, Zaventem, Belgium) according to the manufacturer’s instructions. The CC50 was defined as the 50% concentration for cytotoxicity.

rgRSV224 virus = experiment: Antiviral activity: rgRSV224 (GFP) replication in HeLa cells; type: cell-based, respiratory syncytial virus (RSV)
Protocol: as §1

[2] = read-out: RSV HELA EC50, HeLa cells, rgRSV224 MOI = 1, GFP expression three days post-virus exposure, averaged data of several repeat experiments
[3] = human respiratory syncytial virus, HeLa, 72 h, read-out: RSV HELA EC50, HeLa cells, rgRSV224 MOI = 1, GFP expression three days post-virus exposure, averaged data of several repeat experiments

SMILES	CC50 at 3 days ([1]; TOX HELA CC50) [µM]	EC50 (rgRSV224 virus; [2]) [µM]	EC50 (rgRSV224 virus; [3]) [µM]	CC50 at 3 days ([1]; CC50) [µM]	EC50 (rgRSV224 virus; human respiratory syncytial virus, HeLa, comparison table 5.3, antiviral RSV assay of Example 5.1) [µM]
COc1cc(C(=O)NCC(O)(c2cc(C(C)(C)O)c(F)c(-c3ccc(F)cc3)n2)C(F)F)cc2cc(C)c(F)nc12 (single isomer, unassigned; (+)) [compound 213, (+)-N-{3,3-Difluoro-2-[5-Fluoro-6-(4-Fluorophenyl)-4-(2-Hydroxypropan-2-yl)Pyridin-2-yl]-2-Hydroxypropyl}-2-Fluoro-8-Methoxy-3-Methylquinoline-6-Carboxamide]	31	0.52			
COc1cc(C(=O)NCC(O)(c2cc(C(C)(C)O)c(F)c(-c3ccc(F)cc3)n2)C(F)F)cc2cc(C)nnc12 (single isomer, unassigned; (+)) [compound 249, (+)-N-{3,3-Difluoro-2-[5-Fluoro-6-(4-Fluorophenyl)-4-(2-Hydroxypropan-2-yl)Pyridin-2-yl]-2-Hydroxypropyl}-8-Methoxy-3-Methylcinnoline-6-Carboxamide]	35	> 1.25			
COc1cc(C(=O)NCC(O)(c2cc(C(C)(C)NC(C)=O)c(F)c(-c3ccc(F)cc3)n2)C(F)(F)F)cc2cc(C)nnc12 (single isomer, unassigned; (-)) [compound 235, (-)-N-{2-[4-(2-Acetamidopropan-2-yl)-5-Fluoro-6-(4-Fluorophenyl)Pyridin-2-yl]-3,3,3-Trifluoro-2-Hydroxypropyl}-8-Methoxy-3-Methylcinnoline-6-Carboxamide]	25		0.00062		
COc1cc(C(=O)NCC(O)(c2cc(C(C)(C)O)c(F)c(-c3ccc(C4CC4)cc3)n2)C2CC2)cc2cc(C)nnc12 (single isomer, unassigned; (-)) [compound 254, (-)-N-{2-Cyclopropyl-2-[6-(4-Cyclopropylphenyl)-5-Fluoro-4-(2-Hydroxypropan-2-yl)Pyridin-2-yl]-2-Hydroxyethyl}-8-Methoxy-3-Methylcinnoline-6-Carboxamide]	15		0.0035		
COc1cc(C(=O)NCC(O)(c2cc(C(C)(C)O)c(F)c(-c3cccc(F)c3)n2)C2CC2)cc2cc(C)nnc12 (single isomer, unassigned; (-)) [compound 255, (-)-N-{2-Cyclopropyl-2-[5-Fluoro-6-(3-Fluorophenyl)-4-(2-Hydroxypropan-2-yl)Pyridin-2-yl]-2-Hydroxyethyl}-8-Methoxy-3-Methylcinnoline-6-Carboxamide]	44		0.00081		
Cc1cc2cc(C(=O)NCC(O)(c3cc(C(C)(C)O)c(F)c(-c4ccc(F)cc4)n3)C3CC3)cc(OC(F)F)c2nn1 (single isomer, unassigned; (-)) [compound 260, (-)-N-{2-Cyclopropyl-2-[5-Fluoro-6-(4-Fluorophenyl)-4-(2-Hydroxypropan-2-yl)Pyridin-2-yl]-2-Hydroxyethyl}-8-(Difluoromethoxy)-3-Methylcinnoline-6-Carboxamide]	19		0.0016		
Cc1cc2cc(C(=O)NCC(O)(c3cc(C(C)(C)O)c(Cl)c(-c4ccc(F)cc4)n3)C(F)(F)F)cc(OC(F)(F)F)c2nn1 (single isomer, unassigned; (-)) [compound 261, (-)-N-{2-[5-Chloro-6-(4-Fluorophenyl)-4-(2-Hydroxypropan-2-yl)Pyridin-2-yl]-3,3,3-Trifluoro-2-Hydroxypropyl}-3-Methyl-8-(Trifluoromethoxy)Cinnoline-6-Carboxamide]	13		0.013		
COc1cc(C(=O)NCC(O)(c2cc(C(C)(C)O)c(F)c(-c3ccc(F)cc3)n2)[C@H]2CC2(F)F)cc2cc(C)nnc12 (stereo in doubt) [compound 319, N-((*R)-2,2-Difluorocyclopropyl)-2-(5-Fluoro-6-(4-Fluorophenyl)-4-Hydroxypropan-2-yl)Pyridin-2-yl)-2-Hydroxyethyl)-8-Methoxy-3-Methylcinnoline-6-Carboxamide]	6.1		0.0012		
COc1cc(C(=O)NCC(O)(c2cc(C(C)(C)O)c(F)c(-c3ccc(F)cc3)n2)[C@@H]2CC2(F)F)cc2cc(C)nnc12 (stereo in doubt) [compound 320, N-((*S)-2,2-Difluorocyclopropyl)-2-(5-Fluoro-6-(4-Fluorophenyl)-4-Hydroxypropan-2-yl)Pyridin-2-yl)-2-Hydroxyethyl)-8-MZthoxy-3-Methylcinnoline-6-Carboxamide]	24		0.001		
CC(C)(O)c1cc([C@@](O)(CNC(=O)c2cc(OC3CC3)c3ncccc3c2)C(F)(F)F)nc(-c2ccc(F)cc2)c1F [Compound A, reference compound]				37	0.014
COc1cc(C(=O)NC[C@](O)(c2cc(C(C)(C)O)c(Cl)c(-c3ccc(F)cc3)n2)C(F)(F)F)cc2cc(C)cnc12 [compound 200, (-)-N-{2-[5-Chloro-6-(4-Fluorophenyl)-4-(2-Hydroxypropan-2-yl)Pyridin-2-yl]-3,3,3-Trifluoro-2-Hydroxypropyl}-8-Methoxy-3-Methylquinoline-6-Carboxamide]	22		0.0017		
COc1cc(C(=O)NC[C@](O)(c2nc(-c3ccc(F)cc3)c(F)c(C(C)(C)O)c2F)C(F)(F)F)cc2cc(C)cnc12 [compound 201, (-)-N-{2-[3,5-difluoro-6-(4-fluorophenyl)-4-(2-hydroxypropan-2-yl)pyridin-2-yl)-3,3,3-trifluoro-2-hydroxypropyl}-8-methoxy-3-methylquinoline-6-carboxamide]	43		0.0026		
COc1cc(C(=O)NC[C@](O)(c2nc(-c3ccc(F)cc3)c(Cl)c(C(C)(C)O)c2F)C(F)(F)F)cc2cc(C)cnc12 [compound 202]	46		0.0048		
COc1cc(C(=O)NC[C@](O)(c2cc(C(C)(C)O)c(Cl)c(-c3ccc(F)cc3)n2)C2CC2)cc2cc(C)cnc12 [compound 205, (-)-N-{2-[5-Chloro-6-(4-Fluorophenyl)-4-(2-Hydroxypropan-2-yl)Pyridin-2-yl]-2-Cyclopropyl-2-Hydroxyethyl}-8-Methoxy-3-Methylquinoline-6-Carboxamide]	32		0.00081		
COc1cc(C(=O)NC[C@](O)(c2cc(C(C)(C)O)c(F)c(-c3ccc(F)cc3)n2)C2CC2)cc2cc(C)cnc12 [compound 206]	15		0.00046		
COc1cc(C(=O)NC[C@](O)(c2cc(C(C)(C)O)c(F)c(-c3ccc(C(F)(F)F)cc3)n2)C2CC2)cc2cc(C)cnc12 [compound 207]	13		0.00077		
COc1cc(C(=O)NC[C@](O)(c2cc(C(C)(C)O)c(F)c(-c3ccc(Cl)cc3)n2)C2CC2)cc2cc(C)cnc12 [compound 208, (-)-N-{2-[6-(4-chlorophenyl)-5-fluoro-4-(2-hydroxypropan-2-yl)pyridin-2-yl]-2-cyclopropyl-2-hydroxyethyl}-8-methoxy-3-methylquinoline-6-carboxamide]	14		0.001		
COc1cc(C(=O)NC[C@](O)(c2cc(C(C)(C)O)c(F)c(-c3ccc(F)c(F)c3)n2)C2CC2)cc2cc(C)cnc12 [compound 209, (-)-N-{2-Cyclopropyl-2-[6-(3,4-Difluorophenyl)-5-Fluoro-4-(2-Hydroxypropan-2-yl)Pyridin-2-yl]-2-Hydroxyethyl}-8-Methoxy-3-Methylquinoline-6-Carboxamide]	25		0.00041		
